According to patent publication US9763942B2, “Serine/threonine kinase inhibitors” (Array BioPharma Inc., priority 2013, dated 2017):
Where two headings read alike, the source gives them in different places.

Key:
[1] = molecular target: T1, human ERK-2 (Mitogen Activated Kinase 1) (Homo sapiens, UniProt P28482); assay: ERK-2 Enzymatic Assay; assay type: biochemical
T1 construct: n-terminal 6-His fusion protein in E. coli and corresponding to aa 8-360; 6-His (N); made in house; host or cells: E. coli
T1 sequence (P28482 8-360): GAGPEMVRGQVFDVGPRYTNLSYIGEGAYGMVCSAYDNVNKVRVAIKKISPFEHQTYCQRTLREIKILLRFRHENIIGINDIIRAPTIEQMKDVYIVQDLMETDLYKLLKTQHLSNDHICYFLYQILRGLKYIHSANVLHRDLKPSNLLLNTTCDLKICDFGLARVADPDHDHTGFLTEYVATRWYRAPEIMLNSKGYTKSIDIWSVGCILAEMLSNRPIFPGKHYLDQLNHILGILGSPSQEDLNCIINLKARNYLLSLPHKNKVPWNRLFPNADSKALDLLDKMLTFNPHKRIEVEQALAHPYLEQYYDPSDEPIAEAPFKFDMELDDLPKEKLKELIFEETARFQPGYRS
Text: Table 1 contains representative data for Examples disclosed herein.

[2] = test system: PMA-stimulated P90RSK(Ser380) phosphorylation in HepG2 cells; assay: Cellular P90RSK(Ser380) Phosphorylation Assay; assay type: cell-based; conditions: Homo sapiens, 1.5 hours compound incubation, PMA 100 ng/mL 30 minutes, pP90RSK(Ser380) signal normalized to GAPDH, single assay or mean of multiple assays, read-out: Biological Example 2 IC50
Procedure: Inhibition of PMA-stimulated P90RSK(Ser380) phosphorylation was determined by the following in vitro cellular mechanistic assay, which comprises incubating cells with a compound for 1.5 hours and quantifying fluorescent pP90RSK(Ser380) signal on fixed cells and normalizing to GAPDH signal.
HepG2 cells were obtained from ATCC and grown in DMEM supplemented with 10% fetal bovine serum. Cells were plated in 96-well plates at 35,000 cells/well and allowed to attach overnight at 37° C./5% CO2. Diluted compounds were then added at a final concentration of 0.5% DMSO. After 1.5 hours compound incubation, cells were stimulated with the addition of phorbol 12-myristate 13-acetate (“PMA”) at a final concentration of 100 ng/mL; the PMA stimulation was a 30-minute incubation at 37° C./5% CO2. After the 30-minute PMA stimulation, cells were washed with phosphate buffered saline (“PBS”) and fixed in 3.7% formaldehyde in PBS at room temperature for 15-20 minutes. This was followed by another wash in PBS and then permeabilization in 100% MeOH at room temperature for 10-15 minutes. Following the permeabilization incubation, cells were washed in PBS/0.05% Tween-20, followed by a block in Odyssey blocking buffer (LI-COR Biosciences) for at least 1 hour. Antibodies to phosphorylated P90RSK(Ser380) (Cell Signaling #9335, rabbit monoclonal) and GAPDH (Fitzgerald 10R-G109a, mouse monoclonal) were added to the cells and incubated overnight at 4° C. pP90RSK(Ser380) antibody was used at a 1:250 dilution; GAPDH was used at a 1:10,000 dilution. After washing with PBS/0.05% Tween-20, the cells were incubated with fluorescently-labeled secondary antibodies (Anti-rabbit-Alexa Flour680, Invitrogen Cat#A21109; Anti-mouse-IRDye800CW, Rockland Inc. Cat#610-131-121) for 1 hour. Both secondary antibodies were used at a 1:1000 dilution. Cells were then washed and analyzed for fluorescence at both wavelengths using the Odyssey Infrared Imaging System (LI-COR Biosciences). Phosphorylated P90RSK(Ser380) signal was normalized to GAPDH signal.

[3] = 5 nM ERK-2 enzyme, 25 μM ATP (observed Km), Omnia peptide S/T17, single assay or mean of multiple assays, read-out: Biological Example 1 IC50
[4] = ERK-2 enzymatic assay, read-out: IC50

IC50 [1, 3] [nM] | IC50 [1, 4] [nM] | SMILES | IC50 [2] [nM]
5.1 | < 100 | Cn1nccc1Nc1cc(-c2ccc3c(c2)nnn3Cc2ccc(Cl)cc2)ccn1 [Example 55, 4-(1-(4-chlorobenzyl)-1H-benzo[d][1,2,3]triazol-5-yl)-N-(1-methyl-1H-pyrazol-5-yl)pyridin-2-amine] | 184
11.4 | < 100 | Cc1cccc(Cn2nnc3cc(-c4ccnc(Nc5ccnn5C)n4)ccc32)n1 [Example 58, N-(1-methyl-1H-pyrazol-5-yl)-4-(1-((6-methylpyridin-2-yl)methyl)-1H-benzo[d][1,2,3]triazol-5-yl)pyrimidin-2-amine] | 437
2.2 | < 100 | Cn1nccc1Nc1nccc(-c2ccc3c(c2)nnn3CCn2cccn2)n1 [Example 104, 4-(1-(2-(1H-pyrazol-1-yl)ethyl)-1H-benzo[d][1,2,3]triazol-5-yl)-N-(1-methyl-1H-pyrazol-5-yl)pyrimidin-2-amine] | 19.6
2 | < 100 | COc1ccc([C@@H](c2nccn2C)n2nnc3cc(-c4ccnc(Nc5ccnn5C)n4)ccc32)cc1F [Example 72, (S)-4-(1-((3-fluoro-4-methoxyphenyl)(1-methyl-1H-imidazol-2-yl)methyl)-1H-benzo[d][1,2,3]triazol-5-yl)-N-(1-methyl-1H-pyrazol-5-yl)pyrimidin-2-amine] | 3.7
53.2 | < 100 | Cn1nccc1Nc1nccc(-c2ccc3c(c2)nnn3CC2CNC2)n1 [Example 62, 4-(1-(azetidin-3-ylmethyl)-1H-benzo[d][1,2,3]triazol-5-yl)-N-(1-methyl-1H-pyrazol-5-yl)pyrimidin-2-amine] | 1400
4 | < 100 | Cn1nccc1Nc1nccc(-c2ccc3c(c2)nnn3CC2CCC(F)(F)CC2)n1 [Example 33, 4-(1-((4,4-difluorocyclohexyl)methyl)-1H-benzo[d][1,2,3]triazol-5-yl)-N-(1-methyl-1H-pyrazol-5-yl)pyrimidin-2-amine] | 63.3
